Data reported in patent publication US20250380696A1, “METHOD FOR CONTROLLING UNDESIRED PLANTS AND PROMOTING GROWTH OF USEFUL PLANTS” (ISHIHARA SANGYO KAISHA, LTD., priority 2022, published 2025).
Read-outs that look alike come from different tables or passages of the source.

System: Italian ryegrass (Lolium multiflorum)
Experiment: (16) Herbicidal effect test (comparative test), pot, spray at 2.5 to 3.0 leaf stage
Format: in vivo
Settings: Lolium multiflorum, read-out: Growth inhibition rate (%) Measured value
Text: [formula] • X: growth inhibition rate when treated with α (g/ha) of compound A, • Y: growth inhibition rate when treated with β (g/ha) of compound B, • E: growth inhibition rate expected when treated with α (g/ha) of compound A and β (g/ha) of compound B (expected value).
Upland soil was put in a 1/1,000,000 hectare pot, and seeds of Italian ryegrass (Lolium multiflorum) were sown. When Italian ryegrass reached 2.5 to 3.0 leaf stage, a water-based suspension containing tiafenacil as the active ingredient, prepared by a conventional method for preparing a water-based suspension, a water-based suspension containing saflufenacil as the active ingredient (tradename: Sharpen, manufactured by BASF), a wettable powder containing fomesafen as the active ingredient, prepared by a conventional method for preparing a wettable powder, an emulsifiable concentrate containing fluthiacet-methyl as the active ingredient (tradename: Attackshot emulsifiable concentrate, manufactured by MARUWA Biochemical Co., Ltd.), a dry flowable containing carfentrazone-ethyl as the active ingredient (tradename: Task DF, manufactured by ISHIHARA SANGYO KAISHA, LTD.) or a water-based suspension containing pyraflufen-ethyl as the active ingredient (tradename: ECOPART flowable, manufactured by NIHON NOHYAKU CO., LTD.), and an emulsifiable concentrate containing S-metolachlor as the active ingredient (tradename: Dual Gold, manufactured by Syngenta) or a wettable powder containing metribuzin as the active ingredient (tradename: SENCOR wettable powder, manufactured by Bayer Crop Science), were diluted with water (in an amount corresponding to 200 liter per hectare) containing 0.5 vol % of an agricultural spreader (tradename: Destiny HC, manufactured by Winfield Solutions, LLC.) and sprayed by a small spray gun (model: W-101-132G, manufactured by ANEST IWATA Corporation). On the 4th day after spraying, the state of growth of the Italian ryegrass was visually observed, and the growth inhibition rate (%) was obtained in accordance with the evaluation standards described in the above (1) herbicidal effect test, and the results are shown in Table 16. Further, the expected value of the growth inhibition rate (%) was calculated in accordance with the Colby's formula described in the above (1) herbicidal effect test, and the results are also shown in Table 16.

[1] = Dose 12.5 g/ha, 4th day after spraying

SMILES | inhibition at 12.5 g/ha [%] | inhibition at 12.5 g/ha [1] [%]
CCOC(=O)C(Cl)Cc1cc(-n2nc(C)n(C(F)F)c2=O)c(F)cc1Cl (centres unmarked) [carfentrazone-ethyl] | 12 | –
COC(=O)CSc1cc(/N=c2\sc(=O)n3n2CCCC3)c(F)cc1Cl [fluthiacet-methyl] | – | 12
CS(=O)(=O)NC(=O)c1cc(Oc2ccc(C(F)(F)F)cc2Cl)ccc1[N+](=O)[O-] [fomesafen] | – | 8
CCOC(=O)COc1cc(-c2nn(C)c(OC(F)F)c2Cl)c(F)cc1Cl [pyraflufen-ethyl] | 25 | –
CC(C)N(C)S(=O)(=O)NC(=O)c1cc(-n2c(=O)cc(C(F)(F)F)n(C)c2=O)c(F)cc1Cl [saflufenacil] | – | 33
